Assay [1] concerns the target Intestinal-type alkaline phosphatase (Mus musculus, UniProt P24822). The experiment in a line: mouse intestinal alkaline phosphatase activators, dose response, biochemical, luminescence, uHTS hits (AID 488783). In kind it is functional.
Assay [2] deals with T1, Alkaline phosphatase, tissue-nonspecific isozyme (Homo sapiens, UniProt P05186).
T1 sequence (P05186 whole entry): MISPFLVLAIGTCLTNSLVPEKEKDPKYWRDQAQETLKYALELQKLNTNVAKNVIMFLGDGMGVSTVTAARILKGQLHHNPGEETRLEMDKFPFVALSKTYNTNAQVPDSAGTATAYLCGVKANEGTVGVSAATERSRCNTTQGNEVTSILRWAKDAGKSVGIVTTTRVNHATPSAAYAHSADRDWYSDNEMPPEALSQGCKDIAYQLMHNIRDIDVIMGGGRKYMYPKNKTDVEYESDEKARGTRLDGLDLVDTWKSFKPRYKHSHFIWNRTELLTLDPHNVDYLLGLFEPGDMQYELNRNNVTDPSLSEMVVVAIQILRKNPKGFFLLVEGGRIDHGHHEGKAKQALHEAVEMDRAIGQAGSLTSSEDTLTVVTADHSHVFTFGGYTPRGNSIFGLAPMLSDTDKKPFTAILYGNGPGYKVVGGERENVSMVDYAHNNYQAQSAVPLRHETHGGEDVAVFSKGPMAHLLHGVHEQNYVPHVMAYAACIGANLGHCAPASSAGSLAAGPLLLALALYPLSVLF
In words: activation of tissue-nonspecific alkaline phosphatase – biochemical, TNAP isozyme, mouse IAP uHTS hits, selectivity assay for mouse IAP activator project, dose response (AID 488880). It is filed as functional.

Assay [3] concerns the target Intestinal-type alkaline phosphatase (Homo sapiens, UniProt P09923). In words: activation of human intestinal alkaline phosphatase – biochemical, dose response (AID 488873). In kind it is functional.
Another assay has as its target T2, Leucine aminopeptidase (Plasmodium falciparum 3D7, UniProt Q8IL11).
T2 sequence (Q8IL11 whole entry): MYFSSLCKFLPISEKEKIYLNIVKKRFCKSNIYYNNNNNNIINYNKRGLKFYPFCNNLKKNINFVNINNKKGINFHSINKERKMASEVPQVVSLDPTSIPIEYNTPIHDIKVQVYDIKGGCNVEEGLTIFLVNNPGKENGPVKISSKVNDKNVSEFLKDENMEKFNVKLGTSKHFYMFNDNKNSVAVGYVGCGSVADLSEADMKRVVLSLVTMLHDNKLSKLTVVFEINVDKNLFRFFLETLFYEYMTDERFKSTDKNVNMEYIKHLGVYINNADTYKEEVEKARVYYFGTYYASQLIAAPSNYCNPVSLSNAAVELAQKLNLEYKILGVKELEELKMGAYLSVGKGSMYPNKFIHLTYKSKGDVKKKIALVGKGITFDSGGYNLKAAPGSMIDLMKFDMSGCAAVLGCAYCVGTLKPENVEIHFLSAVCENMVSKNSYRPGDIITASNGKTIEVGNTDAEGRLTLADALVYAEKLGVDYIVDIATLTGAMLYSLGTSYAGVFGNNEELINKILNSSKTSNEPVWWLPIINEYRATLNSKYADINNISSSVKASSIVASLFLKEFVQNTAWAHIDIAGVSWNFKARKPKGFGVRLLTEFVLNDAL
The experiment in a line: P. falciparum M17LAP inhibitors, primary screen, biochemical, fluorogenic H-Leu-NHMec substrate, 1536-well (AID 1619). In kind it is functional.

For assay [4], the target named is T3, RNA-binding protein pos-1 (Caenorhabditis elegans, UniProt G5EF15).
T3 sequence (G5EF15 whole entry): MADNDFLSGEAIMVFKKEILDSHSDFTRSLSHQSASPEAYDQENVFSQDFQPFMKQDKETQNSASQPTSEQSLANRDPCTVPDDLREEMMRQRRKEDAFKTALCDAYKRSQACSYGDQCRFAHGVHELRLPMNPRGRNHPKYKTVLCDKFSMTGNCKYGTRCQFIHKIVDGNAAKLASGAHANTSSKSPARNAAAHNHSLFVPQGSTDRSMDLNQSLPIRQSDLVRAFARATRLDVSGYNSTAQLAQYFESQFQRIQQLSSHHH
The experiment in a line: disruptors of C. elegans POS-1 RNA interaction – biochemical, fluorescence polarization, dose response (AID 1964).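 Also: purified POS-1 fused to maltose binding protein made in E. coli; potency of compounds blocking POS-1 binding to fluorescent RNA.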 On the technique in general: Fluorescence polarisation rises when a labelled molecule tumbles more slowly, as on binding a larger partner.

Assay [5] addresses T4, Zinc finger protein mex-5 (Caenorhabditis elegans, UniProt Q9XUB2).
T4 sequence (Q9XUB2 whole entry): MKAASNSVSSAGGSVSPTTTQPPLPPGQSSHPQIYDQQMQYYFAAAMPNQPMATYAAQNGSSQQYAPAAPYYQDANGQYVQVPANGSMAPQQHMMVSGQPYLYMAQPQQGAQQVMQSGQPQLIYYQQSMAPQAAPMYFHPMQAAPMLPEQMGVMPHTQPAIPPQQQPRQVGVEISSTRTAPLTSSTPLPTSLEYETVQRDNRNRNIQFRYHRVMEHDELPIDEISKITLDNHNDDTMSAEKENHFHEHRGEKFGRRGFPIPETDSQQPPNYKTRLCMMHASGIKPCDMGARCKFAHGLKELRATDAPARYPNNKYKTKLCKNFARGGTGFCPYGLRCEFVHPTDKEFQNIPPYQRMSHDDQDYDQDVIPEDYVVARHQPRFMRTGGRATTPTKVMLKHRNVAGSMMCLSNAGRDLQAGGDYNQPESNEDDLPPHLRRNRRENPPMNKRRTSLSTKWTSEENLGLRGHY
The experiment in a line: potency of MEX-5 RNA-binding blockers – biochemical, C. elegans, fluorescence polarization, dose response (AID 1960).

Assay [6] has as its target T5, Dual specificity protein phosphatase 6 (Rattus norvegicus, UniProt Q64346).
T5 sequence (Q64346 whole entry): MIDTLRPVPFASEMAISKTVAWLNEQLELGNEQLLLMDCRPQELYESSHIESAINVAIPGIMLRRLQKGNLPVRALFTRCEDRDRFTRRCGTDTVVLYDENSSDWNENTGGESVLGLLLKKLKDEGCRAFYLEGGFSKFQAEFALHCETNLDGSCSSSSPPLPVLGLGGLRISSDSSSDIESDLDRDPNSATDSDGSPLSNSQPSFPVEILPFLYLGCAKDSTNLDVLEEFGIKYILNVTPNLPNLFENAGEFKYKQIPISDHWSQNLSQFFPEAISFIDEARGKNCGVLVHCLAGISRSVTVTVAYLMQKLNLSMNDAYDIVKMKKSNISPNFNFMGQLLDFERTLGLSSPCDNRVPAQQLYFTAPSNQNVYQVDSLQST
In words: inhibition of rat DUSP6 enzyme activity – biochemical, in vitro, primary screen (AID 425).

Assay [7] concerns the target T6, Dual specificity protein phosphatase 3 (Homo sapiens, UniProt P51452). In words: VHR1 phosphatase inhibitors, biochemical (AID 1878).
Assay [8] deals with DNA (cytosine-5)-methyltransferase 1 (Homo sapiens, UniProt P26358). The experiment in a line: inhibition of DNA methylation by DNMT1 – biochemical, fluorescent molecular beacon, confirmation (AID 602386). In kind it is functional.
Sequence of DNA (cytosine-5)-methyltransferase 1 (P26358 whole entry): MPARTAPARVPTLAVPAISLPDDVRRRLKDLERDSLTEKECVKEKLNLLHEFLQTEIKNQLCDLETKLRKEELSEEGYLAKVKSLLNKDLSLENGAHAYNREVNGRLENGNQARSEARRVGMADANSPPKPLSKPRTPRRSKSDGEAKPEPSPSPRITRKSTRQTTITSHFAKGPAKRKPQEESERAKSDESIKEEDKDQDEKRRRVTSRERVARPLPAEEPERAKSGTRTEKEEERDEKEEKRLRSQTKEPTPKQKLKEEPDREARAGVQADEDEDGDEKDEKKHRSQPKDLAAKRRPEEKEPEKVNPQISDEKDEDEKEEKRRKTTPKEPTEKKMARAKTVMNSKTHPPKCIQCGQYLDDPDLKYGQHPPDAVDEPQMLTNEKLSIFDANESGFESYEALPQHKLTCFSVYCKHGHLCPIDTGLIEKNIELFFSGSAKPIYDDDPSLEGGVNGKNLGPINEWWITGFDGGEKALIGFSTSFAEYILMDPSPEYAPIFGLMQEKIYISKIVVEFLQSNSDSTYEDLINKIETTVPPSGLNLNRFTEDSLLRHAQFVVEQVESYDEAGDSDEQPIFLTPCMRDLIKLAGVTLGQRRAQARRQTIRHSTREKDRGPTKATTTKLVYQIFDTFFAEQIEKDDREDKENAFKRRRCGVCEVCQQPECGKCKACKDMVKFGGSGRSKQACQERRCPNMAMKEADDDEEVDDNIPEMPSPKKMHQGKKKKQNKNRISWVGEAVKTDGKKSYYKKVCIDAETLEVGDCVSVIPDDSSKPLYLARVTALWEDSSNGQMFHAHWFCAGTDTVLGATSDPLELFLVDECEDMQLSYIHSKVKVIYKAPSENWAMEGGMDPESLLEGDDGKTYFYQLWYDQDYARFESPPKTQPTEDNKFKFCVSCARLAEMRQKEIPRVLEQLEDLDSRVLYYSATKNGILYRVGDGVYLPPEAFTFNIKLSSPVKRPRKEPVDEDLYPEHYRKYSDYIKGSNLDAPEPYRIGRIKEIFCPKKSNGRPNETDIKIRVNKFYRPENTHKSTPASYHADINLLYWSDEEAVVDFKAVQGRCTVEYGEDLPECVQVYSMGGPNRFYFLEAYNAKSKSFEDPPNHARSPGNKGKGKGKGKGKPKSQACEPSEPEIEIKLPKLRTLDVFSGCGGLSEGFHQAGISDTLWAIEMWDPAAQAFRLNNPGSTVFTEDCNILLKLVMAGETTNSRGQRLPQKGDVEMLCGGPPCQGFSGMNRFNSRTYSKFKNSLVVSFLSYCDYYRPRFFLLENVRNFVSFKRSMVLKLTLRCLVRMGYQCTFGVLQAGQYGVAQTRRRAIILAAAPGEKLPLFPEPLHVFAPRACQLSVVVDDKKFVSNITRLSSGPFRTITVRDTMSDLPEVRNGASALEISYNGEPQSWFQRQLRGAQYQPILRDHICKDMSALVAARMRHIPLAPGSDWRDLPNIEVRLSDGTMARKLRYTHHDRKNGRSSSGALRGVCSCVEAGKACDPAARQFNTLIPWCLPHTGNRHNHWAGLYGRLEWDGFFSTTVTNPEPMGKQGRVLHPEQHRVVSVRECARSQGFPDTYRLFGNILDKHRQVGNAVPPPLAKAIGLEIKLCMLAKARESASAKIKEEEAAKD
The target of assay [9] is T6, Dual specificity protein phosphatase 3. In words: VHR1 phosphatase inhibitors, primary screen, biochemical, absorbance, uHTS (AID 1654).
Assay [10] concerns the target Induced myeloid leukemia cell differentiation protein Mcl-1 (Homo sapiens, UniProt Q07820). In kind it is functional.

Molecules are shown by their SMILES. Calls of active or inactive are those of the source. Some results are limits rather than exact numbers.

T6 sequence (P51452 whole entry): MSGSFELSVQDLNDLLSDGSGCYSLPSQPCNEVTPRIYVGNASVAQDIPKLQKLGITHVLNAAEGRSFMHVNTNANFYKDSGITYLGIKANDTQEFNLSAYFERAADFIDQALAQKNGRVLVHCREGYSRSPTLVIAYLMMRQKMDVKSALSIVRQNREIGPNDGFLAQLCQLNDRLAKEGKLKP
Sequence of Intestinal-type alkaline phosphatase (Homo sapiens, UniProt P09923) (P09923 whole entry): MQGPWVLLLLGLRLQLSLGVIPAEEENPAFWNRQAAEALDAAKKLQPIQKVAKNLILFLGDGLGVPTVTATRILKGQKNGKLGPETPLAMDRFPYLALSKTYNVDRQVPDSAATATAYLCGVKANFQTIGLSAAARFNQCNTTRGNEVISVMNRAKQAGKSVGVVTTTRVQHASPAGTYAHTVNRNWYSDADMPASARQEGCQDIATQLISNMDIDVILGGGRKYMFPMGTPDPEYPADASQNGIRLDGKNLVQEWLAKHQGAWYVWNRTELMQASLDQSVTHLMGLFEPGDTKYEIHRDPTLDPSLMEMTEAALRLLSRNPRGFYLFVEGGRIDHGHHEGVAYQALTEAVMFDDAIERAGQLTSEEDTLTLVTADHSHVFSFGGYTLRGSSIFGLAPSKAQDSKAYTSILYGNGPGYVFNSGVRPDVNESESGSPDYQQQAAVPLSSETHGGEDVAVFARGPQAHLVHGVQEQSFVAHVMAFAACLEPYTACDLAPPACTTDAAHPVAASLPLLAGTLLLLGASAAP
Sequence of Intestinal-type alkaline phosphatase (Mus musculus, UniProt P24822) (P24822 whole entry): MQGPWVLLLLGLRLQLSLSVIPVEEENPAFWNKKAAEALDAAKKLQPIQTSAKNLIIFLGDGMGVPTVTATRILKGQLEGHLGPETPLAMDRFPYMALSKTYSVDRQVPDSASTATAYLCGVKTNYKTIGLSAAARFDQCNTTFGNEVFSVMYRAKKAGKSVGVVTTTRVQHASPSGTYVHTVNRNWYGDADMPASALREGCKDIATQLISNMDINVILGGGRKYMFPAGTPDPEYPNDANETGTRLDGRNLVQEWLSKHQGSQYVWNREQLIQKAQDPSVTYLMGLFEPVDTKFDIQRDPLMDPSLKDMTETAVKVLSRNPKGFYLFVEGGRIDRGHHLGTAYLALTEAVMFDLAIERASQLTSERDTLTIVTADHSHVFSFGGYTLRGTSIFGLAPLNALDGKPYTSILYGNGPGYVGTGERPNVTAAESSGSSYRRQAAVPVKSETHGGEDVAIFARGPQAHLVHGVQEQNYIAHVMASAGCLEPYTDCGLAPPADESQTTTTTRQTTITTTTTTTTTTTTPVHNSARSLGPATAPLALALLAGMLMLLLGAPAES
Sequence of Induced myeloid leukemia cell differentiation protein Mcl-1 (Q07820 whole entry): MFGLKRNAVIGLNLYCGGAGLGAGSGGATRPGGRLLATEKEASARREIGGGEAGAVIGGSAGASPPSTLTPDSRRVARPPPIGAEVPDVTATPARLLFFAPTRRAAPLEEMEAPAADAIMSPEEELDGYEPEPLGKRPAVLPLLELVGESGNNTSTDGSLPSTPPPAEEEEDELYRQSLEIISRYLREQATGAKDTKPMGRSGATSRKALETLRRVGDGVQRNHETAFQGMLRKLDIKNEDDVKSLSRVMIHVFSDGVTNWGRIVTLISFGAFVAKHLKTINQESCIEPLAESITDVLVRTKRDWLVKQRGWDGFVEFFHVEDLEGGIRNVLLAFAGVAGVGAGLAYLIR

One may read the EC50 as the concentration giving half of the maximal effect. For orientation: IC50 means the concentration that gives 50% inhibition. In the case of `COc1ccc(S(=O)(=O)Nc2ccc(O)c(Sc3nnc[nH]3)c2)cc1`, the half-maximal effective concentration (EC50) in [1] was 63.4 µM (active); in assay [2], 62.8 µM (active); in assay [3] it was 79.6 µM (active); in assay [4], 10.4 µM (active); in assay [5], 8.48 µM (active). Moreover, at Leucine aminopeptidase, the 50% inhibitory concentration (IC50) was 25 µM (active).
`Cc1ccc(NC(=O)CN2C(=O)S/C(=C\c3cccn3-c3cccc(C(=O)O)c3)C2=O)c(C)c1`: the 50% inhibitory concentration (IC50) in [6] is 7.9 µM (active); in [7] it was 1.89 µM (active); in [8], 9.17 µM (active); in assay [9], 3.25 µM (active); in [10], > 54 µM (active). The half-maximal effective concentration (EC50) in assay [4] and in [5] was > 300 µM (not active) in each case.

Values taken from ChEMBL document CHEMBL1201862, “PubChem BioAssay data set” (2004).
